A short description of this data set: Sea salt added to the turmeric mixture, folliculitis after treatment. The format is in vivo. An excerpt: It is believed that the sea salt help to open or penetrate the cellular wall. […] It is believed that the sea salt should be between about 1-10 parts of the turmeric mixture, with the remaining 90-99 parts being turmeric and milk/clay/etc. A presently preferred range is about 1-2 parts sea salt to about […] turmeric mixture.

Data on 1 substance can be found in patent US20140044814A1, “Composition and Methods for Permanent Hair Removal” (priority 2012, published 2014).

As for sea salt, the folliculitis after treatment entry is listed as “appears to help to minimize folliculitis”.
